Measured values taken from the supplement of paper PMC10307832.

Tests used:
Assay in all cases: relative viability (nuclei count vs DMSO), 5 days (fraction); higher = more cells survive
[1] = compound: CN[C@@H]1C[C@H]2O[C@@](C)([C@@H]1OC)n1c3ccccc3c3c4c(c5c6ccccc6n2c5c31)C(=O)NC4 [Staurosporine]
Method in brief: (§1)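 After an overnight hold at 37 °C, lung cancer cell lines in 1536-well plates were pinned with five library-drug doses (not always all listed), each √10 from the next, on vehicle-anchored plates. The cells stayed 5 days without fresh medium, then a one-step fix, permeabilisation and Hoechst stain preceded 4× imaging and MetaXpress nuclear counts. A plate passed only with control CV under 25% and at least one doubling. Viability is the median, over plates, of treated-well nuclei relative to vehicle-well nuclei.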

[2] = compound: CC1=C(CC(=O)O)c2cc(F)ccc2/C1=C\c1ccc([S+](C)[O-])cc1 [Sulindac]
Method in brief: as §1

[3] = compound: O=c1[nH]cc(F)c(=O)[nH]1 [5-Fluorouracil]
Method in brief: as §1

[4] = compound: CC1=C(CC(=O)O)c2cc(F)ccc2/C1=C\c1ccc([S+](C)[O-])cc1 [Sulindac] + COc1cc2c(Oc3ccc(NC(=O)C4(C(=O)Nc5ccc(F)cc5)CC4)cc3F)ccnc2cc1OCCCN1CCOCC1 [Foretinib] (partner 0.25 µM)
Method in brief: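 Relative viability divides the nuclei count in treated wells by that in vehicle wells. Lung cancer cell lines were seeded in 1536-well plates, dosed by pin tool the next day, and fixed and stained after 5 days in one step with final 0.05% Triton X-100, 1% formaldehyde and 1 ug/ml Hoechst. Dosing was a single drug or a fixed anchor-drug dose plus five library-drug doses (not always all listed) in √10 steps, and values are medians of duplicate plates imaged at 4×.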

| Cell Line | relative viability ([1]; 0.005 µM) | relative viability ([1]; 0.01581 µM) | relative viability ([1]; 0.05 µM) | relative viability ([1]; 0.1581 µM) | relative viability ([1]; 0.5 µM) | relative viability ([2]; 0.08 µM) | relative viability ([2]; 0.253 µM) | relative viability ([2]; 0.8 µM) | relative viability ([2]; 2.53 µM) | relative viability ([2]; 8 µM) | relative viability ([3]; 0.02 µM) | relative viability ([3]; 0.2 µM) | relative viability ([3]; 0.6325 µM) | relative viability ([3]; 2 µM) | relative viability ([4]; first compound 0.08 µM) | relative viability ([4]; first compound 0.253 µM) | relative viability ([4]; first compound 0.8 µM) | relative viability ([4]; first compound 2.53 µM) | relative viability ([4]; first compound 8 µM) |
| --- | --- | --- | --- | --- | --- | --- | --- | --- | --- | --- | --- | --- | --- | --- | --- | --- | --- | --- | --- |
| NCI-H1703 | 0.512 | 0.291 | 0.186 | 0.161 | 0.112 | 1.11 | 1 | 0.915 | 0.917 | 1.26 | 1.17 | 0.999 | 0.848 | 0.562 | 0.276 | 0.389 | 0.355 | 0.382 | 0.377 |
| EBC-1 | 0.623 | 0.395 | 0.239 | 0.2 | 0.12 | 1.12 | 1.14 | 0.705 | 1.09 | 1.1 | 1.03 | 0.979 | 0.934 | 0.619 | 0.0937 | 0.0935 |  | 0.107 | 0.105 |
| 201T | 0.968 | 0.564 | 0.854 | 0.563 | 0.279 | 1.02 | 1 | 1 | 0.977 | 1.09 | 0.997 | 0.774 | 0.345 | 0.335 | 1.1 | 1.08 |  |  | 1.22 |
| NCI-H2023 | 0.471 | 0.289 | 0.178 | 0.0889 | 0.0533 | 1.39 | 1.05 | 0.744 | 1.01 | 1.13 | 0.849 | 0.227 | 0.133 | 0.0914 | 0.969 | 0.867 | 0.715 | 0.821 | 1.07 |
| NCI-H1395 | 0.609 | 0.364 | 0.488 | 0.331 | 0.253 | 1.11 | 0.968 | 0.938 | 0.804 | 1.14 | 0.899 | 1.03 | 0.937 | 0.826 | 0.845 | 1.02 | 0.949 | 0.906 | 1.1 |
| NCI-H23 | 0.704 | 0.139 | 0.367 | 0.164 | 0.117 | 1.19 | 0.802 | 0.701 | 0.799 | 1.15 | 1 | 1.13 | 0.601 | 0.387 | 0.879 |  | 0.782 | 0.607 | 1.03 |
| LU99A | 0.912 | 0.569 | 0.422 | 0.211 | 0.131 | 1.02 | 0.982 | 0.922 | 0.845 | 1.09 | 0.943 | 0.999 | 0.845 | 0.624 | 0.87 | 0.808 | 0.934 | 0.791 | 0.926 |
| NCI-H1437 | 0.918 | 0.705 | 0.704 | 0.306 | 0.153 | 1.14 | 1.02 | 0.857 | 1.01 | 1.17 | 0.626 | 0.289 | 0.25 | 0.216 | 1.33 | 1.23 | 1 | 1.28 | 1.42 |
| EKVX | 0.758 | 0.417 | 0.351 | 0.256 | 0.146 | 1.05 | 1.01 | 0.832 | 0.941 | 1.08 | 0.835 | 0.312 |  | 0.176 | 0.666 | 0.942 | 0.421 | 0.683 | 0.995 |
